Source: patent US6706663B2, “Herbicidal 3-heterocyclic substituted benzisothiazole and benzisoxazole compounds” (Wyeth, priority 2000, dated 2004)

Experiments:
[1] = tested on: ABUTH (Abutilon theophrasti); test: Postemergence herbicidal evaluation; format: in vivo, Medic.
Outline: (§1)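 Visual 0–9 injury scores versus control plants, covering stand, vigour, malformation, size, chlorosis and general appearance, taken four to five weeks post-spray and averaged over replicate tests. Plants were sprayed at roughly two weeks old and held on greenhouse benches.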

[2] = tested on: AMBEL (Ambrosia artemisifolia); test: Postemergence herbicidal evaluation; format: in vivo, L.
Outline: as §1

[3] = tested on: CASOB (Cassia obtusifolia); test: Postemergence herbicidal evaluation; format: in vivo, L.
Outline: as §1

[4] = tested on: CHEAL (Chenopodium album); test: Postemergence herbicidal evaluation; format: in vivo, L.
Outline: as §1

GALAP (Galium aparine) [5] = test: Postemergence herbicidal evaluation; format: in vivo
Outline: as §1

[6] = tested on: IPOHE (Ipomoea hederacea); test: Postemergence herbicidal evaluation; format: in vivo, (L.) Jacq.
Outline: as §1

SETVI (Setaria viridis) [7] = test: Postemergence herbicidal evaluation; format: in vivo, (L.) Beau
Outline: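 Visual injury score (0-9: stand, vigor, malformation, size, chlorosis, overall appearance vs untreated control) taken four to five weeks post-spray. Two-week-old seedlings received about 0.0040 to 1.000 kg/ha active compound in acetone/water with 0.5% TWEEN 20.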

ORYSAT (Rice, Tebonnet) [8] = test: Postemergence herbicidal evaluation; format: in vivo, Oryza sativa, (L.) Tebonnet
Outline: as §1

[9] = tested on: TRZAWR (Wheat, Winter, cv Riband); test: Postemergence herbicidal evaluation; format: in vivo, Triticum aestivum
Outline: as §1

[10] = tested on: AMBEL (Ambrosia artemisifolia); test: Preemergence herbicidal evaluation; format: in vivo, L.; settings: preemergence, rated 4-5 weeks after treatment
Outline: (§2)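 Steps: mix seeds with potting soil; plant on ~1 inch soil per cup; spray compound in aqueous acetone; hold on greenhouse benches with routine watering; rate 0–9 visually against control at 4–5 weeks.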

[11] = tested on: CASOB (Cassia obtusifolia); test: Preemergence herbicidal evaluation; format: in vivo, L.; settings: preemergence, rated 4-5 weeks after treatment
Outline: as §2

[12] = tested on: CHEAL (Chenopodium album); test: Preemergence herbicidal evaluation; format: in vivo, L.; settings: preemergence, rated 4-5 weeks after treatment
Outline: as §2

GALAP (Galium aparine) [13] = test: Preemergence herbicidal evaluation; format: in vivo; settings: preemergence, rated 4-5 weeks after treatment
Outline: as §2

[14] = tested on: ECHCG (Echinochloa crus-galli); test: Preemergence herbicidal evaluation; format: in vivo, (L.) Beau; settings: preemergence, rated 4-5 weeks after treatment
Outline: as §2

SETVI (Setaria viridis) [15] = test: Preemergence herbicidal evaluation; format: in vivo, (L.) Beau; settings: preemergence, rated 4-5 weeks after treatment
Outline: as §2

ORYSAT (Rice, Tebonnet) [16] = test: Preemergence herbicidal evaluation; format: in vivo, Oryza sativa, (L.) Tebonnet; settings: preemergence, rated 4-5 weeks after treatment
CYPIR (Cyperus iria) = test: Flooded paddy, preemergence weed control; format: in vivo; settings: rated 3-4 weeks after treatment, 0-9 rating scale
Outline: (§3)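 Visual 0–9 ratings versus controls scored stand, vigor, malformation, size, chlorosis and overall appearance. Plants grew from seeds or propagating organs sown 0.5 cm deep in silt loam, with water held 1.5–3 cm above the soil for the whole test under greenhouse care.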

[17] = tested on: CYPSE (Cyperus serotinus); test: Flooded paddy, preemergence weed control; format: in vivo, Rottb.; settings: rated 3-4 weeks after treatment, 0-9 rating scale
Outline: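 Herbicidal effect was scored visually on a 0–9 scale against an untreated control 3–4 weeks after treatment. Compounds were applied preemergence as 50/50 v/v aqueous/acetone mixtures into flood water (1.5–3 cm deep over silt loam), at roughly 0.0080 to 0.1250 kg/ha active ingredient.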

[18] = tested on: MOOVA (Monochoria vaginalis); test: Flooded paddy, preemergence weed control; format: in vivo, Presl.; settings: rated 3-4 weeks after treatment, 0-9 rating scale
Outline: as §3

[19] = tested on: SAGPY (Sagittaria pygmaea); test: Flooded paddy, preemergence weed control; format: in vivo, L.; settings: rated 3-4 weeks after treatment, 0-9 rating scale
Outline: as §3

For `Cn1c(C(F)(F)F)cc(=O)n(-c2ccc3snc(C4OCCCO4)c3c2)c1=O` [Compound 28, 3-(3-m-dioxan-2-yl-1,2-benzisothiazol-5-yl)-1-methyl-6-(trifluoromethyl)uracil], the “Postemergence herbicidal rating, ABUTH” value ([1]; rate 0.0320 kg/ha) was 9.0, the “Postemergence herbicidal rating, ABUTH” value ([1]; rate 0.0620 kg/ha) was 9.0 and the “Postemergence herbicidal rating, AMBEL” value ([2]; rate 0.0320 kg/ha) was 9.0. The “Postemergence herbicidal rating, AMBEL” value ([2]; rate 0.0620 kg/ha) was 9.0, the “Postemergence herbicidal rating, CASOB” value ([3]; rate 0.0320 kg/ha) was 8.0 and the “Postemergence herbicidal rating, CASOB” value ([3]; rate 0.0620 kg/ha) was 9.0. The “Postemergence herbicidal rating, CHEAL” value ([4]; rate 0.0320 kg/ha) was 9.0, the “Postemergence herbicidal rating, CHEAL” value ([4]; rate 0.0620 kg/ha) was 9.0 and the “Postemergence herbicidal rating, GALAP” value (GALAP (Galium aparine) [5]; rate 0.0320 kg/ha) was 8.3. For the same compound, the “Postemergence herbicidal rating, GALAP” value (GALAP (Galium aparine) [5]; rate 0.0620 kg/ha) was 9.0, the “Postemergence herbicidal rating, IPOHE” value ([6]; rate 0.0320 kg/ha) was 8.3 and the “Postemergence herbicidal rating, IPOHE” value ([6]; rate 0.0620 kg/ha) was 9.0. The “Postemergence herbicidal rating, SETVI” value (SETVI (Setaria viridis) [7]; rate 0.0320 kg/ha) was 8.3, the “Postemergence herbicidal rating, SETVI” value (SETVI (Setaria viridis) [7]; rate 0.0620 kg/ha) was 8.5 and the “Postemergence herbicidal rating, ORYSAT” value (ORYSAT (Rice, Tebonnet) [8]; rate 0.0320 kg/ha) was 5.3. The “Postemergence herbicidal rating, ORYSAT” value (ORYSAT (Rice, Tebonnet) [8]; rate 0.0620 kg/ha) was 6.5, the “Postemergence herbicidal rating, TRZAWR” value ([9]; rate 0.0320 kg/ha) was 5.0 and the “Postemergence herbicidal rating, TRZAWR” value ([9]; rate 0.0620 kg/ha) was 6.5. The “AMBEL preemergence herbicidal rating” value ([10]; Rate 0.0620 kg/ha) was 9.0, the “AMBEL preemergence herbicidal rating” value ([10]; Rate 0.1250 kg/ha) was 9.0 and the “AMBEL preemergence herbicidal rating” value ([10]; Rate 0.2500 kg/ha) was 9.0. For the same compound, the “CASOB preemergence herbicidal rating” value ([11]; Rate 0.0620 kg/ha) was 9.0, the “CASOB preemergence herbicidal rating” value ([11]; Rate 0.1250 kg/ha) was 9.0 and the “CASOB preemergence herbicidal rating” value ([11]; Rate 0.2500 kg/ha) was 9.0. For the same compound, the “CHEAL preemergence herbicidal rating” value ([12]; Rate 0.0620 kg/ha) was 9.0, the “CHEAL preemergence herbicidal rating” value ([12]; Rate 0.1250 kg/ha) was 9.0 and the “CHEAL preemergence herbicidal rating” value ([12]; Rate 0.2500 kg/ha) was 9.0. The “GALAP preemergence herbicidal rating” value (GALAP (Galium aparine) [13]; Rate 0.0620 kg/ha) was 9.0, the “GALAP preemergence herbicidal rating” value (GALAP (Galium aparine) [13]; Rate 0.1250 kg/ha) was 9.0 and the “GALAP preemergence herbicidal rating” value (GALAP (Galium aparine) [13]; Rate 0.2500 kg/ha) was 9.0. The “ECHCG preemergence herbicidal rating” value ([14]; Rate 0.0620 kg/ha) was 9.0, the “ECHCG preemergence herbicidal rating” value ([14]; Rate 0.1250 kg/ha) was 9.0 and the “ECHCG preemergence herbicidal rating” value ([14]; Rate 0.2500 kg/ha) was 9.0. For the same compound, the “SETVI preemergence herbicidal rating” value (SETVI (Setaria viridis) [15]; Rate 0.0620 kg/ha) was 9.0, the “SETVI preemergence herbicidal rating” value (SETVI (Setaria viridis) [15]; Rate 0.1250 kg/ha) was 9.0 and the “SETVI preemergence herbicidal rating” value (SETVI (Setaria viridis) [15]; Rate 0.2500 kg/ha) was 9.0. The “ORYSAT preemergence herbicidal rating” value (ORYSAT (Rice, Tebonnet) [16]; Rate 0.0620 kg/ha) was 9.0, the “ORYSAT preemergence herbicidal rating” value (ORYSAT (Rice, Tebonnet) [16]; Rate 0.1250 kg/ha) was 9.0 and the “ORYSAT preemergence herbicidal rating” value (ORYSAT (Rice, Tebonnet) [16]; Rate 0.2500 kg/ha) was 9.0. For the same compound, the “herbicidal rating, CYPIR” value (CYPIR (Cyperus iria); rate 0.0080 kg/ha) was 8.0, the “herbicidal rating, CYPIR” value (CYPIR (Cyperus iria); rate 0.0320 kg/ha) was 9.0 and the “herbicidal rating, CYPIR” value (CYPIR (Cyperus iria); rate 0.1250 kg/ha) was 9.0. The “herbicidal rating, CYPSE” value ([17]; rate 0.0320 kg/ha) was 9.0, the “herbicidal rating, CYPSE” value ([17]; rate 0.1250 kg/ha) was 9.0 and the “herbicidal rating, MOOVA” value ([18]; rate 0.0080 kg/ha) was 9.0. For the same compound, the “herbicidal rating, MOOVA” value ([18]; rate 0.0320 kg/ha) was 9.0, the “herbicidal rating, MOOVA” value ([18]; rate 0.1250 kg/ha) was 9.0 and the “herbicidal rating, SAGPY” value ([19]; rate 0.0080 kg/ha) was 0.0. The “herbicidal rating, SAGPY” value ([19]; rate 0.0320 kg/ha) was 8.0 and the “herbicidal rating, SAGPY” value ([19]; rate 0.1250 kg/ha) was 9.0.
